Measurements published in PubChem BioAssay (NCI).
Values joined by “and” are separate entries in the source; they are usually repeats but may differ in a detail not shown here. Identical values can stand only once.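 Dose response: 5 concentrations. Exposure: 48 h. Format: 96-well plates. Endpoint: linear interpolation; highest concentration if not reached. GI50 is the concentration that inhibits growth by half. TGI is the concentration that stops growth completely.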

Tests used:
Assay in all cases: DTP human tumour cell line panel, 48 h
HT29 colon = system: HT29 colon
EKVX NSCLC = system: EKVX NSCLC
OVCAR-3 ovarian = system: OVCAR-3 ovarian
SK-OV-3 ovarian = system: SK-OV-3 ovarian
LOX IMVI melanoma = system: LOX IMVI melanoma
UACC-257 melanoma = system: UACC-257 melanoma
A549 NSCLC = system: A549 NSCLC
NCI-H226 lung = system: NCI-H226 lung
NCI-H522 lung = system: NCI-H522 lung
OVCAR-4 ovarian = system: OVCAR-4 ovarian

Structure (SMILES): C/C=C(/C)C(=O)O[C@H](C[C@@H](C)[C@H]1CC(c2ccoc2)OC1=O)[C@@]1(C)C(=O)CCC2O[C@]21C (stereo partly specified)
- TGI (HT29 colon): > 100 µM
- TGI (EKVX NSCLC): > 100 µM
- TGI (OVCAR-3 ovarian): > 100 µM
- TGI (SK-OV-3 ovarian): > 100 µM
- TGI (LOX IMVI melanoma): > 100 µM
- TGI (UACC-257 melanoma): > 100 µM
- TGI (A549 NSCLC): > 100 µM
- TGI (NCI-H226 lung): > 100 µM
- TGI (NCI-H522 lung): > 100 µM
- TGI (OVCAR-4 ovarian): > 100 µM

Structure (SMILES): O=CC1CCCc2ccccc21 (stereo unspecified)
- TGI (HT29 colon): > 100 µM
- TGI (EKVX NSCLC): > 100 µM
- TGI (OVCAR-3 ovarian): > 100 µM
- TGI (SK-OV-3 ovarian): > 100 µM
- TGI (LOX IMVI melanoma): > 62.4 µM
- TGI (UACC-257 melanoma): > 100 µM
- TGI (A549 NSCLC): > 100 µM
- TGI (NCI-H226 lung): > 100 µM
- TGI (NCI-H522 lung): > 100 µM
- TGI (OVCAR-4 ovarian): > 100 µM

Structure (SMILES): C=C(CO[Si](C)(C)C(C)(C)C)C(C)=O
- TGI (HT29 colon): 40.7 µM
- TGI (EKVX NSCLC): > 100 µM
- TGI (OVCAR-3 ovarian): 38.1 µM
- TGI (SK-OV-3 ovarian): > 100 µM
- TGI (LOX IMVI melanoma): 24.7 µM
- TGI (UACC-257 melanoma): 34.3 µM
- TGI (A549 NSCLC): > 100 µM
- TGI (NCI-H226 lung): > 100 µM
- TGI (NCI-H522 lung): 17.3 µM
- TGI (OVCAR-4 ovarian): 44.4 µM

Structure (SMILES): O=C(/C=C/c1ccc([N+](=O)[O-])cc1)c1ccc2c3c(cccc13)CC2
- GI50 (HT29 colon): 5.05 µM
- TGI (HT29 colon): > 100 µM
- GI50 (EKVX NSCLC): 62.9 µM
- TGI (EKVX NSCLC): > 100 µM
- GI50 (OVCAR-3 ovarian): 3 µM
- TGI (OVCAR-3 ovarian): 10.1 µM
- GI50 (SK-OV-3 ovarian): 33.1 µM
- TGI (SK-OV-3 ovarian): > 91.3 µM
- GI50 (LOX IMVI melanoma): 4.26 µM
- TGI (LOX IMVI melanoma): 17.6 µM
- GI50 (UACC-257 melanoma): > 46 µM
- TGI (UACC-257 melanoma): > 94.4 µM
- GI50 (A549 NSCLC): 10.3 µM
- TGI (A549 NSCLC): > 100 µM
- GI50 (NCI-H226 lung): > 37.2 µM
- TGI (NCI-H226 lung): > 100 µM
- GI50 (NCI-H522 lung): 9.77 µM
- TGI (NCI-H522 lung): 34.5 µM
- GI50 (OVCAR-4 ovarian): 13.5 µM
- TGI (OVCAR-4 ovarian): > 100 µM

Structure (SMILES): Nc1nc(Nc2ccc(C3CCC(N4CCOCC4)CC3)cc2)nn1-c1ccccn1 (stereo unspecified)
- GI50 (HT29 colon): 3.11 µM
- TGI (HT29 colon): > 100 µM
- GI50 (EKVX NSCLC): 8.21 µM
- TGI (EKVX NSCLC): > 100 µM
- GI50 (OVCAR-3 ovarian): 9.86 µM
- TGI (OVCAR-3 ovarian): 44.6 µM
- GI50 (SK-OV-3 ovarian): 18.1 µM
- TGI (SK-OV-3 ovarian): > 100 µM
- GI50 (LOX IMVI melanoma): 3.24 µM
- TGI (LOX IMVI melanoma): 9.37 µM
- GI50 (UACC-257 melanoma): 3.43 µM
- TGI (UACC-257 melanoma): 12.2 µM
- GI50 (A549 NSCLC): 4.08 µM
- TGI (A549 NSCLC): > 100 µM
- GI50 (NCI-H226 lung): 2.4 µM
- TGI (NCI-H226 lung): > 58.4 µM
- GI50 (NCI-H522 lung): 8.51 µM
- TGI (NCI-H522 lung): 32.7 µM
- GI50 (OVCAR-4 ovarian): 12.4 µM
- TGI (OVCAR-4 ovarian): > 84.9 µM

Structure (SMILES): CCOC(=O)NC(=O)c1cn(CCCCCCOC(=O)NCCCCCCNC(=O)OCCCCCCn2cc(C(=O)NC(=O)OCC)c(=O)[nH]c2=O)c(=O)[nH]c1=O
- TGI (HT29 colon): > 100 µM
- TGI (EKVX NSCLC): > 100 µM
- TGI (OVCAR-3 ovarian): > 100 µM
- TGI (SK-OV-3 ovarian): > 100 µM
- TGI (LOX IMVI melanoma): > 100 µM
- TGI (UACC-257 melanoma): > 100 µM
- TGI (A549 NSCLC): > 100 µM
- TGI (NCI-H226 lung): > 100 µM
- TGI (NCI-H522 lung): > 100 µM
- TGI (OVCAR-4 ovarian): > 100 µM

Structure (SMILES): CCCCN(CCCC)c1ccc(C(=N)c2ccc(N(CCCC)CCCC)cc2)cc1
- GI50 (HT29 colon): 0.282 µM
- TGI (HT29 colon): 1.03 µM
- GI50 (EKVX NSCLC): 0.277 µM
- TGI (EKVX NSCLC): 1.15 µM
- GI50 (OVCAR-3 ovarian): 0.283 µM
- TGI (OVCAR-3 ovarian): 0.946 µM
- GI50 (SK-OV-3 ovarian): 1.19 µM
- TGI (SK-OV-3 ovarian): 2.47 µM
- GI50 (LOX IMVI melanoma): 0.313 µM
- TGI (LOX IMVI melanoma): 1.19 µM
- GI50 (UACC-257 melanoma): 0.561 µM
- TGI (UACC-257 melanoma): 1.63 µM
- GI50 (A549 NSCLC): 0.72 µM
- TGI (A549 NSCLC): 2.07 µM
- GI50 (NCI-H226 lung): 0.593 µM
- TGI (NCI-H226 lung): 1.97 µM
- GI50 (NCI-H522 lung): 0.232 µM
- TGI (NCI-H522 lung): 0.727 µM
- GI50 (OVCAR-4 ovarian): 0.373 µM
- TGI (OVCAR-4 ovarian): 1.4 µM

Structure (SMILES): O=C(Nc1ccc(Cl)cc1)Nc1ccc(Nc2nncc3ccccc23)cc1
- GI50 (HT29 colon): 2.65 µM
- TGI (HT29 colon): 14.1 µM
- GI50 (EKVX NSCLC): 2.95 µM
- TGI (EKVX NSCLC): 25.3 µM
- GI50 (OVCAR-3 ovarian): 2.57 µM
- TGI (OVCAR-3 ovarian): 10.3 µM
- GI50 (SK-OV-3 ovarian): 3.05 µM
- TGI (SK-OV-3 ovarian): 17.7 µM
- GI50 (LOX IMVI melanoma): 0.825 µM
- TGI (LOX IMVI melanoma): 14.6 µM
- GI50 (UACC-257 melanoma): 3.41 µM
- TGI (UACC-257 melanoma): 10.8 µM
- GI50 (A549 NSCLC): 3.03 µM
- TGI (A549 NSCLC): 19.3 µM
- GI50 (NCI-H226 lung): 2.46 µM
- TGI (NCI-H226 lung): 12.5 µM
- GI50 (NCI-H522 lung): 1.32 µM
- TGI (NCI-H522 lung): 8.81 µM
- GI50 (OVCAR-4 ovarian): 1.97 µM
- TGI (OVCAR-4 ovarian): 8.17 µM

Structure (SMILES): O=CN/C=C/c1ccc(O)c(O)c1
- TGI (HT29 colon): > 100 µM
- TGI (EKVX NSCLC): > 100 µM
- TGI (OVCAR-3 ovarian): > 100 µM
- TGI (SK-OV-3 ovarian): > 100 µM
- TGI (LOX IMVI melanoma): > 100 µM
- TGI (UACC-257 melanoma): > 100 µM
- TGI (A549 NSCLC): > 100 µM
- TGI (NCI-H226 lung): > 100 µM
- TGI (NCI-H522 lung): > 100 µM
- TGI (OVCAR-4 ovarian): > 100 µM

Structure (SMILES): C[C@]12CCC3[C@@H](CC[C@@H]4c5nonc5CC[C@]34C)C1C/C(=N/O)C2=O (stereo partly specified)
- TGI (HT29 colon): > 100 µM
- TGI (EKVX NSCLC): > 100 µM
- TGI (OVCAR-3 ovarian): > 100 µM
- TGI (SK-OV-3 ovarian): > 100 µM
- TGI (LOX IMVI melanoma): > 100 µM
- TGI (UACC-257 melanoma): > 100 µM
- TGI (A549 NSCLC): > 100 µM
- TGI (NCI-H226 lung): > 100 µM
- TGI (NCI-H522 lung): > 100 µM
- TGI (OVCAR-4 ovarian): > 100 µM

Structure (SMILES): CS[C@]12C(=O)C[C@@]3(C)[C@@H](CC[C@]3(O)C(=O)CO)[C@@H]1CCC1=CC(=O)CC[C@@]12C
- TGI (HT29 colon): > 100 µM
- TGI (EKVX NSCLC): > 100 µM
- TGI (OVCAR-3 ovarian): > 100 µM
- TGI (SK-OV-3 ovarian): > 100 µM
- TGI (LOX IMVI melanoma): > 100 µM
- TGI (UACC-257 melanoma): > 100 µM
- TGI (A549 NSCLC): > 100 µM
- TGI (NCI-H226 lung): > 100 µM
- TGI (NCI-H522 lung): > 100 µM
- TGI (OVCAR-4 ovarian): > 100 µM

Structure (SMILES): CN(/N=C/c1cccc2cccnc12)c1ccccc1
- TGI (HT29 colon): > 100 µM
- TGI (EKVX NSCLC): > 100 µM
- TGI (OVCAR-3 ovarian): 68 µM
- TGI (SK-OV-3 ovarian): > 100 µM
- TGI (LOX IMVI melanoma): > 100 µM
- TGI (UACC-257 melanoma): > 100 µM
- TGI (A549 NSCLC): > 100 µM
- TGI (NCI-H226 lung): > 100 µM
- TGI (NCI-H522 lung): > 100 µM
- TGI (OVCAR-4 ovarian): > 100 µM

Structure (SMILES): O=C1c2c(O)cccc2C(C2OC(CO)C(O)C(O)C2O)c2cc(CO)cc(O)c21 (stereo unspecified)
- TGI (HT29 colon): > 100 µM
- TGI (EKVX NSCLC): > 100 µM
- GI50 (OVCAR-3 ovarian): 43.9 µM and > 100 µM
- TGI (OVCAR-3 ovarian): > 100 µM
- TGI (SK-OV-3 ovarian): > 100 µM
- TGI (LOX IMVI melanoma): > 100 µM
- TGI (UACC-257 melanoma): > 100 µM
- TGI (A549 NSCLC): > 100 µM
- TGI (NCI-H226 lung): > 100 µM
- TGI (NCI-H522 lung): > 100 µM
- TGI (OVCAR-4 ovarian): > 100 µM

Structure (SMILES): CC1=C2C(=CC(C)(C)C2O)C(=O)C(C)(O)C12CC2 (stereo unspecified)
- TGI (HT29 colon): 0.0311 µM
- TGI (EKVX NSCLC): 0.144 µM
- TGI (OVCAR-3 ovarian): 0.0494 µM
- TGI (SK-OV-3 ovarian): 0.175 µM
- TGI (LOX IMVI melanoma): 0.025 µM
- TGI (UACC-257 melanoma): 0.0442 µM
- TGI (A549 NSCLC): 0.277 µM
- TGI (NCI-H226 lung): 0.152 µM
- TGI (NCI-H522 lung): 0.017 µM
- TGI (OVCAR-4 ovarian): 0.0209 µM
